Assay results: patent US6927236B2, “Coniosulfides and their derivatives, processes for preparing them, and their use as pharmaceuticals” (Aventis Pharma Deutschland GmbH., priority 2001, dated 2005)

Assays:
[1] = target: T1, amyloid precursor protein - FE65 interaction (Homo sapiens, UniProt O00213); assay: Test for the ability to inhibit the APP-FE65 interaction (energy transfer, Eu-cryptate/XL665); format: binding; conditions: for IC50: biotin-cAPP / GST-PTB2, emission at 665 nm and 615 nm, read-out: Inhibition of the amyloid precursor protein - FE65 interaction, IC50
T1 construct: 1 μL of GST-PTB2 (20 nM in Buffer A) was added
T1 sequence (O00213 542-699 limits assumed): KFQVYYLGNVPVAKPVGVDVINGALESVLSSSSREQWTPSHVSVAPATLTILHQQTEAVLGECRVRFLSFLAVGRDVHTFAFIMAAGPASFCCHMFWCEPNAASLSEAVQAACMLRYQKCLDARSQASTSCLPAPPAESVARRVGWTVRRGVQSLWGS
Protocol: Test for the Ability to Inhibit the APP-FE65 Interaction
1 μl of the solution to be tested was pipetted, together with 30 μM 32 mer cAPP in Buffer A, into a microtiter plate. 1 μl of biotin-cAPP (10 nM, dissolved in Buffer A) was then added. After incubating for 15 minutes, 1 μL of GST-PTB2 (20 nM in Buffer A) was added and the plate was incubated once again for 15 minutes. 4 μl of antibody mixture (Streptavidin labeled with Eu-cryptate, […] per well; monoclonal anti-GST antibody labeled with XL665, […] in Buffer B) were then added. After 30 minutes at room temperature, the emission signal of the energy transfer, and the europium signal, were measured at 665 nm and 615 nm in a Tecan ultraphotometer after the test solution had been activated with light at a wavelength of 340 nm.
The IC50 values listed in Table 1 were found for the inhibition of the amyloid precursor protein—FE65 interaction.

[2] = Solubility (appearance / physicochemical properties); conditions: for Solubility in organic solvents: medium-polar and polar organic solvents
[3] = Stability in solution (appearance / physicochemical properties)

| IC50 [1] | Solubility in organic solvents [2] | Solubility in water [2] | Stability in neutral and mildly acidic medium [3] | Stability in strongly acid and strongly alkaline solutions [3] | Structure (SMILES) | Inhibition of the APP-FE65 interaction (in words) [1] |
| --- | --- | --- | --- | --- | --- | --- |
| 3.8 µM | soluble | not particularly soluble | Stable | unstable | CC(=O)NCC(=O)NCC(=O)N/C(=C\SC/C=C(\C)CC/C=C(\C)CCC=C(C)C)C(=O)O [Coniosulfide C] | – |
| 3.8 µM | soluble | not particularly soluble | Stable | unstable | CC(=O)NCC(=O)NCC(=O)N/C(=C\SC/C=C(\C)CC/C=C(\C)CCC(C)=C(C)C)C(=O)O [Coniosulfide D] | – |

Continued, compound first:

| Structure (SMILES) | IC50 [1] | Solubility in organic solvents [2] | Solubility in water [2] | Stability in neutral and mildly acidic medium [3] | Stability in strongly acid and strongly alkaline solutions [3] | Inhibition of the APP-FE65 interaction (in words) [1] |
| --- | --- | --- | --- | --- | --- | --- |
| CC(=O)NCC(=O)N/C(=C\SC/C=C(\C)CC/C=C(\C)CCC=C(C)C)C(=O)O [Coniosulfide A] | 2.3 µM | soluble | not particularly soluble | Stable | unstable | – |
| C/C=C/C=C/C1C(C)=CC2CC(C)CCC2C1(C)/C(O)=C1\C(=O)NC(C(C)O)C1=O (centres unmarked) [Coniosetin, coniosetin] | 28 µM | soluble | not particularly soluble | Stable | unstable | inhibits the APP-FE65 reaction |
| CC(=O)NCC(=O)N/C(=C\SC/C=C(\C)CC/C=C(\C)CCC(C)=C(C)C)C(=O)O [Coniosulfide B] | 2.6 µM | soluble | not particularly soluble | Stable | unstable | – |
